Experimental findings from US11426397B2, “Piperidinyl- and piperazinyl-substituted heteroaromatic carboxamides as modulators of GPR6” (TAKEDA PHARMACEUTICAL COMPANY LIMITED, priority 2017, dated 2022) are described below.

For this assay, the target named is T1, GPR6 receptor expressed in CHO-K1 cells (Homo sapiens, UniProt P46095).
T1 construct: expressed in transfected cells
T1 sequence (P46095 whole entry): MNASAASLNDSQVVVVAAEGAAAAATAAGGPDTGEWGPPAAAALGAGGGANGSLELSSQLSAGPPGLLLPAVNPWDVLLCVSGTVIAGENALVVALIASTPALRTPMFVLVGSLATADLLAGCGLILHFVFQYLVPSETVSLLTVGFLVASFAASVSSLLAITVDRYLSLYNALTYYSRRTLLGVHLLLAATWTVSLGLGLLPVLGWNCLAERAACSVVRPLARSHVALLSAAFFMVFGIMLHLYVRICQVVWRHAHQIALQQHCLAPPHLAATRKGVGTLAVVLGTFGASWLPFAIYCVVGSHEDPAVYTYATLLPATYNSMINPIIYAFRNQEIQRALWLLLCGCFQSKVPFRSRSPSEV
The assay can be described thus: In vitro inhibition of cAMP (EC50), cell-based HTRF cAMP assay. The settings on record: inhibition of constitutive cAMP activity of GPR6 in CHO-K1 cells. The protocol:
I. In Vitro Inhibition of cAMP (EC50)
This cell based assay measures the ability of test compounds to inhibit the constitutive cAMP activity of GPR6 receptor expressed in CHO-K1 cells. CHO cells are stably expressed with GPR6 receptor, whose expression is controlled by a tetracycline inducible element. The cells were cultured in medium containing F12K, 10% FBS, 1% Penn/Strep, 200 μg/mL Hygromycin. GPR6 receptor expression is induced for 20 hours with 2 μg/mL doxycycline (Sigma D9891) in growth media. After addition of doxycycline, the cells are plated at a density of 450-750 cells per well in 96-well half-volume black tissue culture plates (Costar) and placed in an incubator (37° C., 5% CO2) for 20 hours prior to cAMP assays.
Culture media is removed from the cells and they are washed with 50 μL/well of Ringer's Buffer (MgCl2 0.047 mg/mL, NaH2PO4 0.18 mg/mL, Na2HPO4 0.1 mg/mL, KCl 0.34 mg/mL, NaHCO3 1.26 mg/mL, D-glucose 1.8 mg/mL, NaCl 7 mg/mL; pH=7.4). The test compounds are suspended in DMSO, diluted in Ringer's Buffer containing 0.5% fatty acid free BSA plus 300 μM IBMX, and incubated on the cells for 45 minutes at 37° C. and 5% CO2. After incubation, the cells are conditioned for 10 minutes at room temp with Eu-cAMP tracer solution from a Perkin Elmer Lance HTRF Ultra cAMP assay kit (TRF0263). Then ULight™-anti-cAMP solution from the Lance HTRF kit is added and incubated on a shaker at room temp for 1 hour prior to HTRF detection in a Perkin Elmer Envision plate reader. EC50 curves are generated with a four-parameter logistic equation using GraphPad Prism 5.03.
Table 1 lists biological assay data (in vitro inhibition of cAMP) for some of the compounds shown in the examples, where larger pEC50 values represent higher activity or potency. All of the compounds shown in Table 1 were tested in accordance with a cell-based assay which measures the ability of test compounds to inhibit the constitutive cAMP activity of GPR6 receptor expressed in CHO-K1 cells (reported as pEC50). The assay is described in the specification under the heading “In vitro inhibition of cAMP (EC50).”
On the technique in general: In TR-FRET formats the signal depends on donor and acceptor labels being close together.
In the case of `COc1ccc(OC2CCN(c3ccc(S(C)(=O)=O)cc3NC(=O)c3cn(CCF)nc3OC)CC2)c(F)c1` [Example 1, V-(2-(4-(2-fluoro-4-methoxyphenoxy)piperidin-1-yl)-5-(methylsulfonyl)phenyl)-1-(2-fluoroethyl)-3-methoxy-1H-pyrazole-4-carboxamide], the “pEC50, in vitro inhibition of cAMP” value was determined as 7.2.
The value for `COc1ccc(OC2CCN(c3ccc(S(C)(=O)=O)cc3NC(=O)c3cn(CF)nc3OC)CC2)c(F)c1` [Example 2, N-(2-(4-(2-fluoro-4-methoxyphenoxy)piperidin-1-yl)-5-(methylsulfonyl)phenyl)-1-(fluoromethyl)-3-methoxy-1H-pyrazole-4-carboxamide] was 7.0; that for `Cn1cccc(C(=O)Nc2cc(S(C)(=O)=O)ccc2N2CCC(Oc3ccc(F)cc3F)CC2)c1=O` [Example 3, N-(2-(4-(2,4-difluorophenoxy)piperidin-1-yl)-5-(methylsulfonyl)phenyl)-1-methyl-2-oxo-1,2-dihydropyridine-3-carboxamide] was 7.5; that for `Cn1cccc(C(=O)Nc2cc(C#N)ccc2N2CCC(Oc3ccc(F)cc3)CC2)c1=O` [Example 4, N-(5-cyano-2-(4-(4-fluorophenoxy)piperidin-1-yl)phenyl)-1-methyl-2-oxo-1,2-dihydropyridine-3-carboxamide] was 6.7.
`COc1ncccc1C(=O)Nc1cc(S(C)(=O)=O)ccc1N1CCC(Oc2ccc(F)cc2F)CC1` [Example 5, N-(2-(4-(2,4-difluorophenoxy)piperidin-1-yl)-5-(methylsulfonyl)phenyl)-2-methoxynicotinamide]: the “pEC50, in vitro inhibition of cAMP” value came out at 7.4.
In the case of `Cn1cccc(C(=O)Nc2cc(C#N)ccc2N2CCC(Oc3ccccc3F)CC2)c1=O` [Example 8] it was 6.9.
The value for `Cn1cccc(C(=O)Nc2cc(C#N)ccc2N2CCC(Oc3cccc(F)c3F)CC2)c1=O` [Example 9, N-(5-cyano-2-(4-(2,3-difluorophenoxy)piperidin-1-yl)phenyl)-1-methyl-2-oxo-1,2-dihydropyridine-3-carboxamide] was 6.1; that for `COc1c(F)cccc1C(=O)Nc1cc(S(C)(=O)=O)ccc1N1CCC(Oc2ccc(F)cc2F)CC1` [Example 10] was 6.9.
For the molecule `COc1cccc(F)c1C(=O)Nc1cc(S(C)(=O)=O)ccc1N1CCC(Oc2ccc(F)cc2F)CC1` [Example 11], the “pEC50, in vitro inhibition of cAMP” value came to 6.7.
In the case of `Cn1cccc(C(=O)Nc2cc(C#N)ccc2N2CCC(Oc3cccc(F)c3)CC2)c1=O` [Example 12, N-(5-cyano-2-(4-(3-fluorophenoxy)piperidin-1-yl)phenyl)-1-methyl-2-oxo-1,2-dihydropyridine-3-carboxamide] it was 6.4.
The value for `Cn1cccc(C(=O)Nc2cc(C#N)ccc2N2CCC(Oc3c(F)cccc3F)CC2)c1=O` [Example 13, N-(5-cyano-2-(4-(2,6-difluorophenoxy)piperidin-1-yl)phenyl)-1-methyl-2-oxo-1,2-dihydropyridine-3-carboxamide] was 6.3; that for `Cn1cccc(C(=O)Nc2cc(C#N)ccc2N2CCC(Oc3cc(F)ccc3F)CC2)c1=O` [Example 15, N-(5-cyano-2-(4-(2,5-difluorophenoxy)piperidin-1-yl)phenyl)-1-methyl-2-oxo-1,2-dihydropyridine-3-carboxamide] was 7.1.
Take `Cn1cccc(C(=O)Nc2cc(C#N)ccc2N2CCC(Oc3ccc(F)c(F)c3)CC2)c1=O` [Example 16]: the “pEC50, in vitro inhibition of cAMP” value came out at 6.6.
For `Cn1cccc(C(=O)Nc2cnc(Cl)cc2N2CCC(Oc3ccc(F)cc3F)CC2)c1=O` [Example 17, N-(6-chloro-4-(4-(2,4-difluorophenoxy)piperidin-1-yl)pyridin-3-yl)-1-methyl-2-oxo-1,2-dihydropyridine-3-carboxamide], the “pEC50, in vitro inhibition of cAMP” value amounted to 7.2.
